How the values were obtained:
Assay type in all cases: cell-based
[1] = biological target: T1, EGFR WT (Ba/F3 cells) (Homo sapiens, UniProt P00533); test: Inhibitor activity on EGFR-dependent cell growth (CellTiter-Glo, 72 h), Ba/F3 EGFR WT; details: read-out: BaF3 WT IC50
T1 construct: expressed in transfected cells; host or cells: Ba/F3 (murine pro-B cells), retroviral transduction, puromycin selection, maintained with EGF
Summary of the method: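 This growth assay used Ba/F3 cells that depend on wild-type EGFR and are kept in EGF without IL3. Compounds were made up as 10 mM DMSO stocks and diluted 3-fold over 10 points. 120 nL went onto 600 cells/well. After 72 hours, 40 μL CellTiter-Glo was added and luminescence read on EnVision after 30 min.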

[2] = biological target: T2, EGFR exon 20 SVD Ins D770_N771 (Ba/F3 cells) (Homo sapiens, UniProt P00533, INS770SVD); test: Inhibitor activity on EGFR-dependent cell growth (CellTiter-Glo, 72 h), Ba/F3 EGFR exon 20 SVD Ins; details: read-out: BaF3 SVD IC50
T2 construct: expressed in transfected cells; host or cells: Ba/F3 (murine pro-B cells), retroviral transduction, puromycin selection, IL3-independent pool
Summary of the method: (§1)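 IC50s derive from a sigmoidal dose–response fit of CellTiter-Glo signal. The signal was normalised between […]-treated cells and cell-free medium. Ba/F3 mutant-EGFR cells, seeded at 400–800/well depending on the line, had 72 h of exposure to a 10-point, 3-fold compound series.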

[3] = biological target: T3, EGFR exon 20 ASV Ins V769_D770 (Ba/F3 cells) (Homo sapiens, UniProt P00533, INS769ASV); test: Inhibitor activity on EGFR-dependent cell growth (CellTiter-Glo, 72 h), Ba/F3 EGFR exon 20 ASV Ins; details: read-out: BaF3 ASV IC50
T3 construct: expressed in transfected cells; host or cells: Ba/F3 (murine pro-B cells), retroviral transduction, puromycin selection, IL3-independent pool
Summary of the method: as §1

[4] = biological target: T4, EGFR exon 20 NPG Ins D770_N771 (Ba/F3 cells) (Homo sapiens, UniProt P00533, INS770NPG); test: Inhibitor activity on EGFR-dependent cell growth (CellTiter-Glo, 72 h), Ba/F3 EGFR exon 20 NPG Ins; details: read-out: BaF3 NPG IC50
T4 construct: expressed in transfected cells; host or cells: Ba/F3 (murine pro-B cells), retroviral transduction, puromycin selection, IL3-independent pool
Text: Example A. Inhibitor Activity on EGFR-Dependent Cell Growth
Cell lines are generated by transducing Ba/F3 cells with retroviruses containing vectors with EGFR WT, EGFR L858R, EGFR exon 19del, EGFR L858R/C797S, EGFR exon 20 NPG Ins D770_N771, EGFR exon 20 ASV Ins V769_D770, EGFR exon 20 SVD Ins D770_N771, or EGFR exon 20 FQEA Ins A763_V764 genes and a puromycin selection marker. Transduced cells are selected with puromycin for 7 days and are then be transferred into culture media without Interleukin 3 (IL3). EGFR WT cells are maintained with supplemental EGF. Surviving cells are confirmed to express EGFR by Western blot and maintained as a pool. The IC50 date were included in Table 6 and Table 7.
1.1 Cells are harvested from flask into cell culture medium and the cell number counted.
1.2 Cells are diluted with culture medium to the desired density and 40 μL of cell suspension is added into each well of 384-well cell culture plate and the seeding density is 800 (FQEA, exon 19del), 600 (WT, NPG, L858R/C797S), or 400 (ASV, SVD, L858R) cells/well.
2 Compound Preparation and Treatment
2.1 Test compounds are dissolved to 10 mM in a DMSO stock solution. 45 μL of stock solution is transferred to a 384 polypropylene plate (pp-plate). Perform 3-fold, 10-point dilution via transferring 15 μL compound into 30 μL DMSO using a TECAN (EVO200) liquid handler.
2.2 Spin plates at room temperature at 1,000 RPM for 1 minute.
2.3 Transfer 120 nL of diluted compound from compound source plate into the cell plate.
2.4 After compound treatment for 72 hours, perform CTG detection for compound treatment plates as described in “Detection” section.
3.1 Plates are removed from incubators and equilibrated at room temperature for 15 minutes.
3.2 Thaw the CellTiter Glo reagents and allow to equilibrate to room temperature before the experiment.
3.3 Add 40 μL of CellTiter-Glo reagent into each well (at 1:1 to culture medium). Then place the plates at room temperature for 30 min followed by reading on EnVision.
4.1 Inhibition activity is calculated following the formula below:
% Inhibition=100×(LumHC−LumSample)/(LumHC−LumLC) • where HC is obtained from cells treated with 0.1% DMSO only; and LC is obtained from culture medium only.
4.2 2. Calculate the IC50 by fitting the Curve using Xlfit (v5.3.1.3), equation 201.
Y=Bottom+(Top−Bottom)/(1+10^((Log IC50−X)*HillSlope))

T4 sequence (P00533 with tags, fused parts or gaps INS770NPG): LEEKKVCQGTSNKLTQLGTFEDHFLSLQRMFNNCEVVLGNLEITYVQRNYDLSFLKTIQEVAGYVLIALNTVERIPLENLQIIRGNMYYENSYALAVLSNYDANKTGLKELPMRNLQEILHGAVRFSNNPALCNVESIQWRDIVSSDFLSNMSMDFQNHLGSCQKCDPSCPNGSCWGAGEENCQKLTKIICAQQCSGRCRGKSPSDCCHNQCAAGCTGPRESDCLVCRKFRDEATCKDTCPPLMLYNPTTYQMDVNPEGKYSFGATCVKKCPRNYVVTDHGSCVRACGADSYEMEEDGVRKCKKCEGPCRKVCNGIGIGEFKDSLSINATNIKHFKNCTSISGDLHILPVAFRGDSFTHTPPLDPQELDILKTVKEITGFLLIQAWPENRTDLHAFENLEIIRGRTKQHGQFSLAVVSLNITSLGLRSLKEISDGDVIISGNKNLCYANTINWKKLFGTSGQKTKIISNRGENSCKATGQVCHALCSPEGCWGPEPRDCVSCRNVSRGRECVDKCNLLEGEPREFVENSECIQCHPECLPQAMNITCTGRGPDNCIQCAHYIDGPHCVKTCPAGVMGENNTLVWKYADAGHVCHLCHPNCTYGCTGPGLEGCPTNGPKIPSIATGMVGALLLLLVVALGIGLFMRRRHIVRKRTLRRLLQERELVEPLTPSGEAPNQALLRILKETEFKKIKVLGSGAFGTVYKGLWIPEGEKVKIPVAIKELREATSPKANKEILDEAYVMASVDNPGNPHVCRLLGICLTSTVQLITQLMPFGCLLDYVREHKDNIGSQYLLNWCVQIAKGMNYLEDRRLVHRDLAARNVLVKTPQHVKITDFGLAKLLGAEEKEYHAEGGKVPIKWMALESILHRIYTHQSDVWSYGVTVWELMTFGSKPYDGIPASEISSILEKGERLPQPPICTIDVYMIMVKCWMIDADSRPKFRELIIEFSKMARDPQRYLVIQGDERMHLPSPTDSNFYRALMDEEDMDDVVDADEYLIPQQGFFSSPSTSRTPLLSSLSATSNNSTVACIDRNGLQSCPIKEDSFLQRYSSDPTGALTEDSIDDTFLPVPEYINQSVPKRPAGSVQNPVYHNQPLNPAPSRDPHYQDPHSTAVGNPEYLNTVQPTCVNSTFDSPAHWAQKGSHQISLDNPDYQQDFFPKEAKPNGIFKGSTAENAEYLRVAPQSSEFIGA
T2 sequence (P00533 with tags, fused parts or gaps INS770SVD): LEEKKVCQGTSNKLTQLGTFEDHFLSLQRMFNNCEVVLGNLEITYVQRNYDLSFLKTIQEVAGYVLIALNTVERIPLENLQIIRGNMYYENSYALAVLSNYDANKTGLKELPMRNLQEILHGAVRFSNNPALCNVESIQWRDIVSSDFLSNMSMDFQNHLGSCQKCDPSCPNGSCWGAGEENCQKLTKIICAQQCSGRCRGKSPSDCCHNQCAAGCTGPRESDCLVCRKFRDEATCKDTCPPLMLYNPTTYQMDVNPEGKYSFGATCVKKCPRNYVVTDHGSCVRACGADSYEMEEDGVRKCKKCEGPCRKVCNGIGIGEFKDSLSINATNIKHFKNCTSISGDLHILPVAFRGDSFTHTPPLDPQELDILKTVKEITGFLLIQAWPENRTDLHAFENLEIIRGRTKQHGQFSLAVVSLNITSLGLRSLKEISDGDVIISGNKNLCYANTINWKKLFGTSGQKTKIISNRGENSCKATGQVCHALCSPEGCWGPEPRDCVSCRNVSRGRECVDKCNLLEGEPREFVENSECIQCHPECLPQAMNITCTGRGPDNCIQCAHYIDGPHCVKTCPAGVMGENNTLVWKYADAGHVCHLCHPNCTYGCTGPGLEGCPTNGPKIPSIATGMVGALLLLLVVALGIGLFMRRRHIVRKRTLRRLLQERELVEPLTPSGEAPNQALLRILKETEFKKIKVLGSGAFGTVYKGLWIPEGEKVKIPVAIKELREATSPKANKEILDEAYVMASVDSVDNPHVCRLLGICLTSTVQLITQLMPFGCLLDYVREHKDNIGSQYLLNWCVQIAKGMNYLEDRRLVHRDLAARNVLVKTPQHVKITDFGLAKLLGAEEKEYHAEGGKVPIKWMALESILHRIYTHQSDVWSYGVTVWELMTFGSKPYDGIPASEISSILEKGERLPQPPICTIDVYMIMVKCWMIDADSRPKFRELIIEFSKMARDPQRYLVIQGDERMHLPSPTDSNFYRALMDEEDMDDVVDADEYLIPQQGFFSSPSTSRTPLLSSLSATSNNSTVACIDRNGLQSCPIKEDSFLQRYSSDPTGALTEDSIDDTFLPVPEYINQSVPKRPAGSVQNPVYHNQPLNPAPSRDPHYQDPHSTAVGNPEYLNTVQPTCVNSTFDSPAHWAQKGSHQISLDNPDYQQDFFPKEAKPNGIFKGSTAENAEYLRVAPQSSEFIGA
T3 sequence (P00533 with tags, fused parts or gaps INS769ASV): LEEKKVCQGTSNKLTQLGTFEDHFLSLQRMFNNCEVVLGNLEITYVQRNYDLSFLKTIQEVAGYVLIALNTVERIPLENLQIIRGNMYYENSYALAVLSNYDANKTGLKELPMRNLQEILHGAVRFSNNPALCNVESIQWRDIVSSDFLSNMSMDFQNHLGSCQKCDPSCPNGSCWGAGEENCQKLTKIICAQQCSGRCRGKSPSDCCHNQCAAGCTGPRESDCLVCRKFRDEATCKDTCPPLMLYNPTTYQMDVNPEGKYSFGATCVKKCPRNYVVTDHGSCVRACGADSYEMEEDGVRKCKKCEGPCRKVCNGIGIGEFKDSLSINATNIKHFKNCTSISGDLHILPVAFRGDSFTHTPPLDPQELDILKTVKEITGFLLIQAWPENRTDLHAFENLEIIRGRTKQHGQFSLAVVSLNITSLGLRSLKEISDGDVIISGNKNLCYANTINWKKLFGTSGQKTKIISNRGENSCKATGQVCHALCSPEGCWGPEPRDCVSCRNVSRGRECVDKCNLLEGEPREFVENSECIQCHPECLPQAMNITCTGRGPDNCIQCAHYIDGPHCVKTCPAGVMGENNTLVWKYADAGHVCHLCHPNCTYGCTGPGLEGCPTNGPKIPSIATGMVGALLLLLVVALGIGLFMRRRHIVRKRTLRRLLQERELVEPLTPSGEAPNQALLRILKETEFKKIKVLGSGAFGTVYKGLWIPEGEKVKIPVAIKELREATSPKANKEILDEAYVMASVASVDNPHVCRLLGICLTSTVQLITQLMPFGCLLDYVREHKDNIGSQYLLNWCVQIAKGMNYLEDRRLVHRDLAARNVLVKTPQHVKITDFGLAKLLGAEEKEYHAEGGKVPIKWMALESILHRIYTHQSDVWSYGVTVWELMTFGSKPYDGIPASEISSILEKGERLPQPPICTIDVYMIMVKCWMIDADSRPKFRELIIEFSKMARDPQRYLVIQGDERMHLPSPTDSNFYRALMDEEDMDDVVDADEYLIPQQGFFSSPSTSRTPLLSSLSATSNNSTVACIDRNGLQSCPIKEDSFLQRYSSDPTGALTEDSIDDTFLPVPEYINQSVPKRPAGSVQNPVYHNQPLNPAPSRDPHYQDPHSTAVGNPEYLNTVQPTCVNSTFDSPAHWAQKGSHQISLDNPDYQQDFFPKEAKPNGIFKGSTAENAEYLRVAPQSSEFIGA
T1 sequence (P00533 25-1210): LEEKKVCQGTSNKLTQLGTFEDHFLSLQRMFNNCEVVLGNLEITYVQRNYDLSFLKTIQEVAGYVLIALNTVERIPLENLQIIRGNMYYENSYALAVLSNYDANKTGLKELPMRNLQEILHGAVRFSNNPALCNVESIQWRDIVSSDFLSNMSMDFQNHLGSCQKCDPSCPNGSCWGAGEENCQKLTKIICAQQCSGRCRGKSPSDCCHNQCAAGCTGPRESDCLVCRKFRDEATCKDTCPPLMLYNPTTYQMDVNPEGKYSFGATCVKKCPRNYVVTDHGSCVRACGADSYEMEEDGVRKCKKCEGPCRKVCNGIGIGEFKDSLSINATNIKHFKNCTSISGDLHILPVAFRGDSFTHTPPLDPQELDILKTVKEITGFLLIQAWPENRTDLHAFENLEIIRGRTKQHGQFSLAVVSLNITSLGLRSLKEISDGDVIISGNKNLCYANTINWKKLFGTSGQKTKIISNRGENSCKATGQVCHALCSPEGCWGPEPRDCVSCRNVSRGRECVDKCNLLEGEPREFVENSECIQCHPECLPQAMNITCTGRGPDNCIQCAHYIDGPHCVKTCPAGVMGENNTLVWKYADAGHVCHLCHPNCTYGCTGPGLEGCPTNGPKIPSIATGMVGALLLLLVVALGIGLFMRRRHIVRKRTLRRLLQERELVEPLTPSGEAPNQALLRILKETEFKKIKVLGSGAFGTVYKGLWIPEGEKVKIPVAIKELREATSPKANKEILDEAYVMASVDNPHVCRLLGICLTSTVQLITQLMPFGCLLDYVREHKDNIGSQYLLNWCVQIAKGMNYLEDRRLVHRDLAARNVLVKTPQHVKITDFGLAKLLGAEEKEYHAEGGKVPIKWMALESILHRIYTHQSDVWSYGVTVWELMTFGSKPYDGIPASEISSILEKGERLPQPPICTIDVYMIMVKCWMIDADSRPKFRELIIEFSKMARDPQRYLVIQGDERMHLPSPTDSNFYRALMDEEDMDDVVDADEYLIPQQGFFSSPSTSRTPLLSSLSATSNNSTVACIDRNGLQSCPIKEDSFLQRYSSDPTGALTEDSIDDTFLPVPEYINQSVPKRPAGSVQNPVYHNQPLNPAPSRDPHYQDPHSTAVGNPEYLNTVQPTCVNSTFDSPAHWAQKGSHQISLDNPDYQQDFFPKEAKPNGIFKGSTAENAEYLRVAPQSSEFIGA

Row | Compound | IC50 [1] [nM] | IC50 [2] [nM] | IC50 [3] [nM] | IC50 [4] [nM]
1 | COc1c(F)cccc1Nc1c(-c2ccnc(C)n2)[nH]c2c1C(=O)NCC2C[C@H]1COCCO1 (single isomer, unassigned) [Compound 603] | > 1000 | < 100 | < 100 | < 100
2 | COc1c(F)cccc1Nc1c(-c2ccnc(C)n2)[nH]c2c1C(=O)NCC2C[C@@H]1COCCO1 (single isomer, unassigned) [Compound 605] | > 1000 | 100 to 1000 | 100 to 1000 | 100 to 1000
3 | COC(=O)N1CC2(CNC(=O)c3c2[nH]c(-c2ccncc2F)c3Nc2cccc(Cl)c2OC)C1 [Compound 490, methyl 3′-[(3-chloro-2-methoxyphenyl)amino]-2′-(3-fluoropyridin-4-yl)-4′-oxo-5′,6′-dihydro-1′H-spiro[azetidine-3,7′-pyrrolo[3,2-c]pyridine]-1-carboxylate] | > 1000 | > 1000 | > 1000 | > 1000
4 | COC(=O)N1CC[C@@]2(CNC(=O)c3c2[nH]c(-c2ccncc2F)c3Nc2cccc(Cl)c2OC)C1 [Compound 498, methyl (3R)-3′-[(3-chloro-2-methoxyphenyl)amino]-2′-(3-fluoropyridin-4-yl)-4′-oxo-5′,6′-dihydro-1′H-spiro[pyrrolidine-3,7′-pyrrolo[3,2-c]pyridine]-1-carboxylate] | > 1000 | > 1000 | > 1000 | 100 to 1000
5 | CNC(=O)N1CC[C@@]2(CNC(=O)c3c2[nH]c(-c2ccncc2F)c3Nc2cccc(Cl)c2OC)C1 [Compound 499, (3R)-3′-[(3-chloro-2-methoxyphenyl)amino]-2′-(3-fluoropyridin-4-yl)-N-methyl-4′-oxo-5′,6′-dihydro-1′H-spiro[pyrrolidine-3,7′-pyrrolo[3,2-c]pyridine]-1-carboxamide] | > 1000 | > 1000 | > 1000 | > 1000
6 | CNC(=O)N1CC[C@]2(CNC(=O)c3c2[nH]c(-c2ccncc2F)c3Nc2cccc(Cl)c2OC)C1 [Compound 500, (3S)-3′-[(3-chloro-2-methoxyphenyl)amino]-2′-(3-fluoropyridin-4-yl)-N-methyl-4′-oxo-5′,6′-dihydro-1′H-spiro[pyrrolidine-3,7′-pyrrolo[3,2-c]pyridine]-1-carboxamide] | > 1000 | > 1000 | > 1000 | > 1000
7 | COc1c(Cl)cccc1Nc1c(-c2ccncc2F)[nH]c2c1C(=O)NCC21CCN(C(=O)/C=C/CN(C)C)CC1 [Compound 522, 3′-[(3-chloro-2-methoxyphenyl)amino]-1-[4-(dimethylamino)but-2-enoyl]-2′-(3-fluoropyridin-4-yl)-5′,6′-dihydro-1′H-spiro[piperidine-4,7′-pyrrolo[3,2-c]pyridin]-4′-one] | > 1000 | 100 to 1000 | 100 to 1000 | 100 to 1000
8 | COc1c(F)cccc1Nc1c(-c2ccncn2)[nH]c2c1C(=O)NC[C@@H]2C[C@@H]1COCCO1 [Compound 529, (7S)-7-[(2R)-1,4-dioxan-2-ylmethyl]-3-[(3-fluoro-2-methoxyphenyl)amino]-2-(pyrimidin-4-yl)-1H,5H,6H,7H-pyrrolo[3,2-c]pyridin-4-one] | > 1000 | 100 to 1000 | 100 to 1000 | 100 to 1000
9 | CC#CC(=O)N1CCC2(CC1)CNC(=O)c1c2[nH]c(-c2ccncc2F)c1Nc1cccc(Cl)c1OC [Compound 555, 1-(but-2-ynoyl)-3′-[(3-chloro-2-methoxyphenyl)amino]-2′-(3-fluoropyridin-4-yl)-5′,6′-dihydro-1′H-spiro[piperidine-4,7′-pyrrolo[3,2-c]pyridin]-4′-one] | > 1000 | > 1000 | > 1000 | > 1000
10 | COc1c(F)cccc1Nc1c(-c2ccnc3cnc(N4CCN(C(=O)/C=C/CN(C)C)CC4)nc23)[nH]c2c1C(=O)NCC2 [Compound 577, 2-(2-{4-[(2E)-4-(dimethylamino)but-2-enoyl]piperazin-1-yl}pyrido[3,2-d]pyrimidin-8-yl)-3-[(3-fluoro-2-methoxyphenyl)amino]-1H,5H,6H,7H-pyrrolo[3,2-c]pyridin-4-one] | 100 to 1000 | < 100 | < 100 | < 100

Results, then the compound that gave them:

Row | IC50 [1] [nM] | IC50 [2] [nM] | IC50 [3] [nM] | IC50 [4] [nM] | Compound
11 | 100 to 1000 | 100 to 1000 | < 100 | 100 to 1000 | C=CC(=O)N1CCC2(CC1)CNC(=O)c1c2[nH]c(-c2ccnc(N)n2)c1Nc1cccc(F)c1OC [Compound 162, 1-acryloyl-2′-(2-aminopyrimidin-4-yl)-3′-((3-fluoro-2-methoxyphenyl)amino)-5′,6′-dihydrospiro[piperidine-4,7′-pyrrolo[3,2-c]pyridin]-4′(1′H)-one]
12 | < 100 | < 100 | < 100 | < 100 | C=CC(=O)N1CCC2(CC1)CNC(=O)c1c2[nH]c(-c2ccncn2)c1Nc1cccc(Cl)c1OC [Compound 478, 3′-[(3-chloro-2-methoxyphenyl)amino]-1-(prop-2-enoyl)-2′-(pyrimidin-4-yl)-5′,6′-dihydro-1′H-spiro[piperidine-4,7′-pyrrolo[3,2-c]pyridin]-4′-one]
13 | < 100 | < 100 | < 100 | < 100 | C=CC(=O)N1CCC(Oc2nc3c(-c4[nH]c5c(c4Nc4cccc(F)c4OC)C(=O)NCC5)ccnc3cc2OC)CC1 [Compound 554, 3-[(3-fluoro-2-methoxyphenyl)amino]-2-(7-methoxy-6-{[1-(prop-2-enoyl)piperidin-4-yl]oxy}-1,5-naphthyridin-4-yl)-1H,5H,6H,7H-pyrrolo[3,2-c]pyridin-4-one]
14 | 100 to 1000 | < 100 | < 100 | < 100 | C=CC(=O)N1CCC2(CC1)CNC(=O)c1c2[nH]c(-c2ccnc(N)n2)c1Nc1cccc(Cl)c1OC [Compound 556, 2′-(2-aminopyrimidin-4-yl)-3′-[(3-chloro-2-methoxyphenyl)amino]-1-(prop-2-enoyl)-5′,6′-dihydro-1′H-spiro[piperidine-4,7′-pyrrolo[3,2-c]pyridin]-4′-one]
15 | < 100 | < 100 | < 100 | < 100 | C=CC(=O)N1CCC2(CC1)CNC(=O)c1c2[nH]c(-c2ccncc2F)c1Nc1cccc(Cl)c1CC [Compound 558, 3′-[(3-chloro-2-ethylphenyl)amino]-2′-(3-fluoropyridin-4-yl)-1-(prop-2-enoyl)-5′,6′-dihydro-1′H-spiro[piperidine-4,7′-pyrrolo[3,2-c]pyridin]-4′-one]
16 | 100 to 1000 | < 100 | < 100 | < 100 | C=CC(=O)N1CCC2(CC1)CNC(=O)c1c2[nH]c(-c2ccncc2F)c1Nc1cccc(F)c1SC [Compound 560, 3′-{[3-fluoro-2-(methylsulfanyl)phenyl]amino}-2′-(3-fluoropyridin-4-yl)-1-(prop-2-enoyl)-5′,6′-dihydro-1′H-spiro[piperidine-4,7′-pyrrolo[3,2-c]pyridin]-4′-one]
17 | 100 to 1000 | < 100 | < 100 | < 100 | C=CC(=O)N1CCC2(CC1)CNC(=O)c1c2[nH]c(-c2ccncc2F)c1Nc1cccc(Br)c1OC [Compound 561, 3′-[(3-bromo-2-methoxyphenyl)amino]-2′-(3-fluoropyridin-4-yl)-1-(prop-2-enoyl)-5′,6′-dihydro-1′H-spiro[piperidine-4,7′-pyrrolo[3,2-c]pyridin]-4′-one]
